What was measured:
phosphodiesterase 4A = molecular target: T1, phosphodiesterase 4A (Homo sapiens, UniProt P27815); assay: Recombinant human PDE4A assay; format: biochemical
T1 construct: made in house; host or cells: E. coli

[1] = system: anaphylactic bronchoconstriction; assay: Effect on anaphylactic bronchoconstriction response; format: in vivo, guinea pig; settings: oral administration one hour before the antigen; from AUC suppression ratio
Procedure: For passive sensitization, 1 ml of rabbit anti-ovalbumine serum was peritoneally administered to male Hartley guinea pigs, and 16 to 24 hours later, ovalbumine was intravenously administered as the antigen. The induced anaphylactic bronchoconstriction was measured by the modified Konzett and Rossler method. Each of the tracheal cannulae was completely closed at the end of the measurement and the measured constriction was defined as the maximum constriction. Changes in the constriction were measured as percentage in the maximum constriction. The area under the curve (AUC) indicating the strength of the response was calculated by an image analyzer (MCID system, Imaging Research Company). The test compound was orally administered one hour before the antigen administration, and the ID50 value of each drug was calculated from the AUC suppression ratio by linear regression analysis.

TNF α production = assay: Suppression effect on TNF α production in the LPS induced mouse sepsis model; format: in vivo; settings: Method A; dose 10 mg/kg orally 90 min before LPS; serum TNF α
Procedure: Lipopolysaccharide (LPS, DIFCO Laboratories) was dissolved in physiological saline to make a final concentration of 0.2 mg/ml. The resulting solution was administered intravenously to the tail of Balb/c male mice (7-week-old) (Charls River Japan Co.) at 200 μl per 20 g body weight of 5 to 6 mice/group. One hour after administration, blood was drawn from a fundus oculi vein of each mouse to obtain serum. […] The concentration of TNF a in serum was measured by enzyme-linked immunosorbent assay (ELISA method) as follows: […] anti-mouse TNF a monoclonal antibody (Pharmingen Inc.) diluted with a phosphate buffer solution (PBS) was added to a 96-well microtiter plate (Nalge Nunc International immuno-plate <MaxiSorp=) at […]; allowed to stand at 4° C. for 12 hours for coating; mixed with […] of a phosphate buffer solution containing 1% bovine serum albumin (BSA) (1% BSA-PBS); allowed to stand at room temperature for 1 hour to block the non-specific binding; washed with phosphate buffer solution; mixed with […] of the subject serum diluted two-fold with 1% BSA-PBS; and allowed to stand at room temperature for 2 hours. Furthermore, recombinant mouse TNF α (Genzyme Corp.) diluted with 1% BSA-PBS was similarly treated and used as a standard substance. These plates were washed three times with PBS (0.05% Tween-PBS) containing 0.05% polyoxyethylenesorbitan monolaurate (Tween 20, Wako Pure Chemical Industries, Ltd.), mixed with […] of biotin-labelled anti-mouse TNF α monoclonal antibody (Method A: Pharmingen Inc.; Method B: Genzyme Corp) diluted with 1% BSA-PBS to make a concentration of 1 mg/ml, allowed to stand at room temperature for 1 hour, washed three times with 0.05% Tween-PBS, mixed with […] of horseradish peroxidase avidin D (Vector Laboratories Inc.) diluted four-thousand-fold with 1% BSA-PBS, and allowed to stand at room temperature for 30 min. Finally, these plates were washed three times with 0.05% Tween-PBS, and mixed with […] of 3,3′,5,5′-tetramethylbenzidine. After color development, the reaction was stopped by adding […] of 10% sulfuric acid solution, and then, the absorbance at 450 nm was measured. The concentration of TNF α in serum was calculated from a calibration curve.
The rate of suppression of each test compound on TNF α production was obtained from the following formula:
Suppression rate=(A−B)/A,
wherein A is the TNF α concentration of the control group and B is the TNF α concentration of the experimental group.
In the above formula, the TNF α concentration of the control group is defined as the value obtained in the absence of the test compound (0.5% methyl cellulose solution alone).
Employed as the reference compounds were 7-methoxy-4-[1-oxo-2-(4-pyridyl)ethyl]-spiro[2,3-dihydrobenzofuran-2,1′-cyclopentane] hydrochloride (disclosed in Example 100 of Japanese Patent Laid-Open No. 8-836624 and hereinafter referred to as Compound RA) having the formula (RA) and 2-benzoyl-4-(3,5-dichloro-4-pyridyl)aminocarbonyl)-7-methoxybenzofuran (disclosed in Example 35 of Japanese Patent Laid-Open No. 8-534708 and hereinafter referred to as Compound RB) having the formula (RB): [drawing 660]

Sunkus murinus = assay: Effect on vomiting induction in male Sunkus murinus; format: in vivo; settings: dose 10 mg/kg i.p., observed for 1 hour after administration
Procedure: Five to fifteen male Sunkus murinus per group weighing approximately 60 g were used for the test. According to the method of Matsumoto, et. al. [Japan J. Pharmacol., 48, 303 (1988)], Sunkus murinus were placed separately into metal wire cages (width 15 cm×length 21 cm×height 15 cm). Each sample of the test compound was suspened in a 0.5% Tween 80 physiological saline solution and administered intraperitoneally (i.p.) at a dose of 10 ml/kg. […] In the group that was administered the test-compound, the results are represented as the number of vomiting animals/the number of experimental animals. Compound RA was employed as a reference compound.

[2] = system: neutrophil and eosinophil accumulation; assay: Effect on neutrophil and eosinophil accumulation in BN rats; format: in vivo, rat; settings: dose of 30 mg/kg p.o.; BALF 24 hours after antigen
Procedure: The Howell et al's method (Pulmonary Pharmacology, 8, […] (1995)) was partly modified and used for the active sensitization and the antigen exposure.
Oval albumin (OA) (1 mg) and aluminium hydroxide (200 mg) were subcutaneously injected into male Brown-Norway rats (6 week-age, Nippon Charles River), to which were intra abdominally administered dead cells of Bordetella pertussis for the active sensitization of the rats. After 14 days, the rats were put into a plastic chamber (30×50×30 cm), and left to inspire a 1% (w/v) OA solution for 10 minutes for antigen induction. For the inspiration, used was an ultrasonic nebulizer (NE-U12, by Omron, Tokyo).
The test compound was suspended in 0.5% methyl cellulose, and orally administered (p.o.) to the rats one hour prior to the antigen challenge. The group of the rats to which 0.5% methyl cellulose was administered and which were left to inspire OA was referred to as OA Group, while the group of the rats which were left to inspire a physiological saline solution in place of OA was referred to as Saline Group.
After 24 hours from the antigen induction, bronchoalveolar lavage (BAL) was performed. […] Then, the number of all leukocytes existing in the resulting suspension was counted, using an automatic leukocyte counter (Celltac α MEK-6158, by Nippon Koden, Tokyo). […]

[3] = system: histamine-induced bronchoconstriction; assay: Suppression of histamine-induced bronchoconstriction response in guinea pig; format: in vivo; settings: intravenous administration; histamine 10 μg/kg iv
Procedure: This test was carried out by a modified Konzett and Rossler method. Under anesthesia with urethane (1.2 g/kg, ip), male Hartley guinea pigs (body weight: 500 to 600 g) were fixed on plates by strings. After undertaking a tracheotomy, cannulae were inserted to the tracheae, right carotid arteries, and left cervical veins. The spontaneous respiration of the guinea pigs was stopped by the administration of gallamie (10 mg/kg) from the left cervical veins via the cannulae. The cannulae inserted into the tracheae were connected to a bronchospasm transducer (Ugo Basile) and a respirator (TB-101, Takashima-shoten, 60 to 70 strokes/minutes, output: 5 cc) and the air overflow volume was recorded by a polygraph (RM-45, Nippon Koden) to measure the amount of bronchoconstriction. For measuring blood pressure, the cannulae inserted in the right carotid arteries were connected to a blood-pressure transducer. Constant bronchoconstriction occurred when histamine (10 μg/kg, iv) was administered at 3 minutes intervals, and the induced bronchoconstriction was used as the control. A test compound was intravenously administered, and one minute later histamine (10 μg/kg, iv) was administered. The test compound was cumulatively administered at 5 minutes intervals, and the bronchoconstriction in control and that after the administration of the test compound was compared.

[4] = system: guinea pig bronchial smooth muscle; assay: Suppression of passive Schultz-Dale response in guinea pig bronchial smooth muscle; settings: Cavia porcellus; ovalbumin-induced constriction of passively sensitized guinea pig tracheal strips; read-out: IC50 (concentration causing 50% relaxation)
Procedure: For passive sensitization, rabbit anti-ovalbumin serum prepared by the method of Kohda et al. [Nichiyakurishi, 66, 237 (1970)] was peritoneally administered to male Hartley guinea pigs weighing 350 to 500 g, and 24 hours later the tracheae thereof were removed to be used for the experiment. Zig-zag strips were prepared from the tracheae in accordance with the method of Emmerson and Mackay [J. Pharm. Pharmacol., 31, 798 (1979)], and they were suspended in a Krebs-Henseleit solution with aeration of a mixture of 95% oxygen and 5% carbon dioxide at 37° C. After stabilizing for approximately one hour, ovalbumin, as the antigen, was added to the mixture (at a final concentration of […]), and the constriction of the muscle was recorded by a recorder (TYPE 3066; Yokokawa Hokushin Denki) via an isotonic transducer (TD-112S; Nippon Koden). A test compound was cumulatively added to the mixture after the constriction had reached the plateau, and the relaxation ratio was determined. The concentration (IC50) causing 50% relaxation was calculated by linear regression analysis.

[5] = system: cAMP-specific phosphodiesterase (PDE IV); assay: Inhibition of the PDE IV enzyme derived from a dog trachea; format: biochemical; settings: test compound 10^−6 M; PDE IV from dog tracheal smooth muscle; substrate cAMP 1 μM
Method in brief: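 Enzyme purified from dog tracheal smooth muscle; [3H]cAMP substrate at 1 μM final in 50 mM BES pH 7.2, 1 mM MgCl2, 0.1 mg/ml soybean trypsin inhibitor, 30° C for 10–30 min, 1.7% DMSO final. After HCl stop, product converted to adenosine by 5′-nucleotidase, separated on DEAE-Sephadex and scintillation-counted.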

T1 sequence (P27815 224-886 limits assumed): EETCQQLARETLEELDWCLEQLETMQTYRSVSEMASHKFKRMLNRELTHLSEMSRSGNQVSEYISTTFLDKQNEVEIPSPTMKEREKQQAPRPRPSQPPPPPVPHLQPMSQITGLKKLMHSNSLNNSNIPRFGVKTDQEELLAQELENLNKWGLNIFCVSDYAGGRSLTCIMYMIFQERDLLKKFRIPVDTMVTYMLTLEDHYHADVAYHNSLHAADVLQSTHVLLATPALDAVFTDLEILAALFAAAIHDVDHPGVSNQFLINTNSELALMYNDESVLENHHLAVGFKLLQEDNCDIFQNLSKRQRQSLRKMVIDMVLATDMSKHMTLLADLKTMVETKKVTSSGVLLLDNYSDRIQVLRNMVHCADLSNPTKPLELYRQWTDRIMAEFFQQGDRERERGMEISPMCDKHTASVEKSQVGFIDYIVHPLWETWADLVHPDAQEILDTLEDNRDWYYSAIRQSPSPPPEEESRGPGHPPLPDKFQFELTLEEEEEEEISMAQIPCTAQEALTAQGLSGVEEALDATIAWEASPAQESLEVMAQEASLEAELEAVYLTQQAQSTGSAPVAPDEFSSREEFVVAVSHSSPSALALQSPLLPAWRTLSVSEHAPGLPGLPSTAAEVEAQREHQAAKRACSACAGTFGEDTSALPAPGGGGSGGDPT

COc1ccc(C(=O)Cc2ccncc2)c2c1OC1(CCCC1)C2.Cl [Compound 100, 7-Methoxy-4-[1-oxo-2-(4-pyridyl)ethyl]-spiro[2,3-dihydrobenzofuran-2,1′-cyclopentane].hydrochloride]
Enzyme Inhibitory Activity (%, 10^−7 M) (phosphodiesterase 4A): 99% | ID50 value (50% inhibitory dose) [1]: 0.53 mg/kg

COc1ccc(-c2ccc(C(=O)O)cc2)c2c1OC(C)(C)O2 [Compound 204, 7-(4-carboxyphenyl)-2,2-dimethyl-4-methoxy-1,3-benzodioxole]
Suppression rate (%) (TNF α production): 79% | melting point: 237 to 239 °C | Number of vomiting animals/Number of experimental animals (Sunkus murinus): 2/5

COc1ccc(C(=O)Cc2c(Cl)cncc2Cl)c2cc(C(=O)NCCN3CCOCC3)oc12 [Compound 216, N-(2-morpholinoethyl)-4-[2-(3,5-dichloropyridin-4-yl)-1-oxo]ethyl-7-methoxybenzofuran-2-carboxamide]
inhibiting activity against eosinophils [2]: 100% | inhibiting activity against neutrophils [2]: 92% | Suppression rate (%) (TNF α production): 75% | Number of vomiting animals/Number of experimental animals (Sunkus murinus): 0/5

COc1ccc(/C=C/c2ccncc2)c2c1OC(C)(C)C2 [Compound 68, (E)-7-Methoxy-2,2-dimethyl-4-[2-(4-pyridyl)ethenyl]-2,3-dihydrobenzofuran]
ID50 value (50% inhibitory dose) [3]: 0.076 mg/kg | IC50 [4]: 1600 nM | Enzyme Inhibitory Activity (%, 10^−6 M) [5]: 80% | melting point: 145 to 149 °C

— patent US6716987B1, “Derivatives of benzofuran or benzodioxazole compounds” (Kyowa Hakko Kogyo Co., Ltd., priority 1995, dated 2004)
